Where “and” joins values, the source holds several entries; their conditions need not be identical. Equal entries are not always repeated. Marks after values point to notes of the source that are not given here.
Test system: human epidermal melanocytes from dark human neonatal foreskin (HEMn-DP)
Assay: Quantification of total melanin in cultured melanocytes after 72 hours treatment
Format: cell-based
Details: for Mean mg melanin/100K cells: mean of triplicate; for mg melanin/100K cells: single replicate well, normalized to cell number
Procedure: Monolayer cultures were initiated from cryopreserved cultures of human epidermal melanocytes from dark human neonatal foreskin (HEMn-DP; C-202-5C; Cascade Biologics™), according to the manufacturer's instructions. Cells were cultured in Medium 254 (M-254-500, Cascade Biologics) supplemented with Human Melanocyte Growth Supplement (HMGS; S-0002-5, Cascade Biologics). Stocks of these cultures were generated and stored in Sythn-a-Freeze® cryopreservation media (R-005-50. Cascade Biologics) in liquid nitrogen at passage 2.
For use in assays, cells were thawed according to manufacturer's instructions, and subcultured to increase cell numbers as required. Cells were then plated into 6-well plates at ˜200,000 cells per well and incubated at 37° C., 5% CO2, and were used in assays at passage 4.
Once the melanocytes had adhered to the 6-well plate's (approx. 4-6 hr.), the medium was replaced with Medium 254 containing Human Melanocyte Growth Supplement PMA-free (HMGS-2; S-016-5 hereafter termed depleted media) for approximately 16 hours, or overnight, prior to treatment with the actives.
To develop the screening assay a variety of cell concentrations and incubation times were tested to obtain optimized measurable levels of melanin. During this process no materials were applied to the cells. In addition a standard melanin (M8631, Sigma Aldrich) stock solution was prepared in Solvable™ reagent (5NE9100, Perkin Elmer) to obtain a standard curve for evaluating levels of melanin extracted from cells using a spectrophotometer. Method development was performed to obtain the optimum time required to solubilize the melanin into solution without degradation and a reduction in color.
All stocks of active materials were diluted in DMSO, ethanol or media, before further dilution in depleted media. Treatments were applied to the cells in 6-well plates in triplicate for 72 hours after which time the cells were harvested. Appropriate solvent controls in triplicate were incorporated into each assay.
After 72 hours, media was removed form the cells and the cells were washed once in Dulbecco's PBS. The PBS wash was removed and discarded and care being taken to ensure that all excess PBS was removed as far as possible. 1 mL trypsin-EDTA solution (R-001-100, Cascade Biologicsm) was added and cells incubated at room temperature for ˜1 minute. Microscopic observation was carried out to ensure all cells had detached from the plate. The resulting cell suspension was transferred to a 1.5 mL Eppendorf tube, 50 μL was removed for a cell count (Beckman coulter counter), and the remaining suspension was centrifuged at 13,000 rpm for 5 minutes. The supernatant was discarded and the cell pellets were frozen at −20° C.
The cell pellets were thawed at room temperature, and each pellet was re-suspended in 75 μL Solvable™ reagent (6NE9100, Perkin Elmer). Each tube was vortexed briefly, before incubating in a water bath at 60° C. for 1 hour. After the 1 hour incubation, each tube was vortexed and then centrifuged at 13,000 rpm for 15 minutes. The supernatant containing the extracted melanin was transferred to a 96 well plate and the absorbance at 490 nm recorded on a Dynex MRX-II plate reader.
Each ingredient was tested in triplicate and compared against the relevant vehicle control. The total amount of melanin extracted was calculated from a melanin standard curve. All resultant data was normalized to the total number of the cells in the sample. Data was subjected to the F-test for variance, followed by Student's t-test (assuming equal or unequal variance depending on results of the F-test.

Q: Which results are given for `COc1ccc2c3c1O[C@H]1C[C@@H](O)C=C[C@@]31CCN(C)C2` [Galanthamine, galanthamine]?
A: Mean mg melanin/100K cells (0.1 μM): 24.0^e mg melanin/100K cells; mg melanin/100K cells (0.1 μM): 21.2 mg melanin/100K cells and 26.7 mg melanin/100K cells and 23.9 mg melanin/100K cells; Mean mg melanin/100K cells (1 μM): 19.4^d mg melanin/100K cells; mg melanin/100K cells (1 μM): 21.0 mg melanin/100K cells and 18.6 mg melanin/100K cells and 18.5 mg melanin/100K cells; Mean mg melanin/100K cells (10 μM): 23.4^c mg melanin/100K cells; mg melanin/100K cells (10 μM): 23.3 mg melanin/100K cells and 23.7 mg melanin/100K cells and 23.0 mg melanin/100K cells
